Laboratory results from patent US11426426B2, “Pharmaceutical composition for preventing or treating inflammatory diseases, containing nitrogen monoxide-sensitive acrylamide-based polymer” (POSTECH ACADEMY-INDUSTRY FOUNDATION, priority 2018, dated 2022).

Tests used:
red blood cells = assay: Evaluation of hemolysis; type: cell-based, mice; details: 1 mg/mL in DPBS; 1×10^8 mouse red blood cells; 4 hours at 37° C.; absorbance at 450 nm
Experimental: In order to check whether the nitric oxide-sensitive hydrogel has in vivo stability after being administered into the body, first, red blood cells were separated from the blood collected from mice. A DPBS solution including 1 mg/mL Example 1, the nitric oxide-cleavable crosslinker (NOCCL), and acrylamide was introduced into 1×10^8 cells of the red blood cells thus prepared, and the mixture was thoroughly mixed. This solution was left to stand for 4 hours in a constant temperature tank at 37° C. Next, the solution was centrifuged, subsequently the supernatant was transferred onto a 96-well plate, and the absorbance at 450 nm was measured to calculate the degree of hemolysis.

[1] = Nitric oxide scavenging ability (Griess reagent)
Experimental: In order to check whether the nitric oxide-cleavable crosslinker (NOCCL) produced according to Production Example 1 can actually scavenge nitric oxide, Griess reagent was used, and 100 μM nitric oxide and 10 μM nitric oxide were treated to check the scavenging ability of the nitric oxide-cleavable crosslinker. At this time, N,N′-methylene bisacrylamide (BIS) was used as a comparative group, and water was used as a control group.

| SMILES | degree of hemolysis (red blood cells) | nitric oxide scavenged as compared to the comparative group ([1]; 100 μM and 10 μM nitric oxide, comparative group BIS) | nitric oxide scavenging ability ([1]; high concentration (100 μM) of nitric oxide) |
| --- | --- | --- | --- |
| C=CC(N)=O [acrylamide] | up to 99% | – | – |
| C=CC(=O)Nc1ccc(NC(=O)C=C)c(N)c1 [nitric oxide-cleavable crosslinker, N,N-(2-amino-1,4-phenylene) diacrylamide] | did not cause hemolysis | ≥ 30% | ≥ 50% |
